Measurements taken from PubChem BioAssay AID1259407 (Chemical Carcinogenesis Research Information System (CCRIS), 2018).
The source made the active and inactive calls. The rule behind the calls is not given here.

Tested on: CCRIS mutagenicity, Ames/micronucleus/aberration tests
Assay: CCRIS mutagenicity studies
[1] = Test System: AMES SALMONELLA TYPHIMURIUM, Strain/Indicator: TA97, Metabolic Activation: NONE, Method: PREINCUBATION
[2] = Test System: AMES SALMONELLA TYPHIMURIUM, Strain/Indicator: TA98, Metabolic Activation: NONE, Method: PREINCUBATION
[3] = Test System: AMES SALMONELLA TYPHIMURIUM, Strain/Indicator: TA1535, Metabolic Activation: NONE, Method: PREINCUBATION
[4] = Test System: AMES SALMONELLA TYPHIMURIUM, Strain/Indicator: TA98, Metabolic Activation: RAT, LIVER, S-9, AROCLOR 1254, Method: STANDARD PLATE
[5] = Test System: AMES SALMONELLA TYPHIMURIUM, Strain/Indicator: TA100, Metabolic Activation: NONE, Method: STANDARD PLATE
[6] = Test System: AMES SALMONELLA TYPHIMURIUM, Strain/Indicator: TA100, Metabolic Activation: RAT, LIVER, S-9, AROCLOR 1254, Method: STANDARD PLATE
[7] = Test System: AMES SALMONELLA TYPHIMURIUM, Strain/Indicator: TA100, Metabolic Activation: NONE, Method: PREINCUBATION

In the case of `C1=Cc2c3c1cccc3cc1ccc3ccccc3c21`, the mutagenic call (Test System: AMES SALMONELLA TYPHIMURIUM, Strain/Indicator: TA98, Metabolic Activation: HUMAN, LIVER, MICROSOMES, Method: STANDARD PLATE) is reported as “active; positive”, the mutagenic call (Test System: AMES SALMONELLA TYPHIMURIUM, Strain/Indicator: TA98, Metabolic Activation: RAT, LIVER, HEPATOCYTES, Method: PREINCUBATION) is reported as “active; positive” and the mutagenic call (Test System: AMES SALMONELLA TYPHIMURIUM, Strain/Indicator: TA98, Metabolic Activation: RAT, LIVER, MICROSOMES, AROCLOR 1254, Method: STANDARD PLATE) is reported as “active; positive”. The mutagenic call (Test System: AMES SALMONELLA TYPHIMURIUM, Strain/Indicator: TA98, Metabolic Activation: RAT, LIVER, MICROSOMES, Method: STANDARD PLATE) was “active; positive”, the mutagenic call (Test System: AMES SALMONELLA TYPHIMURIUM, Strain/Indicator: TA98, Metabolic Activation: RAT, LUNG, MICROSOMES, AROCLOR 1254, Method: STANDARD PLATE) was “active; positive” and the mutagenic call (Test System: AMES SALMONELLA TYPHIMURIUM, Strain/Indicator: TA98, Metabolic Activation: RAT, LUNG, MICROSOMES, Method: STANDARD PLATE) was “inactive; negative”. The mutagenic call (Test System: CHINESE HAMSTER OVARY, Strain/Indicator: V-79/6-THIOGUANINE, Metabolic Activation: RAT, LIVER, S-9, AROCLOR 1254, Method: FLASK ASSAY) was “active; positive”, the mutagenic call (Test System: CHINESE HAMSTER OVARY, Strain/Indicator: V-79/6-THIOGUANINE, Metabolic Activation: SHE CELL MEDIATED, Method: FLASK ASSAY) was “active; positive” and the mutagenic call (Test System: CHINESE HAMSTER V-79, Strain/Indicator: V-79/6-THIOGUANINE, Metabolic Activation: RAT, LIVER, S-9, AROCLOR 1254, Method: SUSPENSION/PLATE) was “active; positive”. The mutagenic call (Test System: CHINESE HAMSTER V-79, Strain/Indicator: V-79/6-THIOGUANINE, Metabolic Activation: SHE CELL-MEDIATED, Method: SUSPENSION/PLATE) was “active; positive”, the mutagenic call (Test System: MOUSE LYMPHOMA, Strain/Indicator: L5178Y (TK+/TK-), Metabolic Activation: RAT, LIVER, S-9, AROCLOR 1254, Method: SUSPENSION/PLATE) was “active; positive” and the mutagenic call (Test System: UDS RAT HEPATOCYTES, Strain/Indicator: THY INCORP, Metabolic Activation: NONE, Method: LIQUID SCINTILLATION COUNTING) was “active; positive”.
`O[C@H]1[C@H]2O[C@H]2C=C[C@@H]1O` was tested, and the mutagenic call [1] was “inactive; negative”, the mutagenic call [2] was “inactive; negative” and the mutagenic call [3] was “active; positive”.
For `Nc1ccc(O)c2c1C(=O)c1ccccc1C2=O`, the mutagenic call [4] was “inactive; negative”, the mutagenic call [5] was “inactive; negative” and the mutagenic call [6] was “inactive; negative”. The mutagenic call (Test System: AMES SALMONELLA TYPHIMURIUM, Strain/Indicator: TA1535, Metabolic Activation: NONE, Method: STANDARD PLATE) was “inactive; negative”, the mutagenic call (Test System: AMES SALMONELLA TYPHIMURIUM, Strain/Indicator: TA1535, Metabolic Activation: RAT, LIVER, S-9, AROCLOR 1254, Method: STANDARD PLATE) was “inactive; negative” and the mutagenic call (Test System: AMES SALMONELLA TYPHIMURIUM, Strain/Indicator: TA1537, Metabolic Activation: NONE, Method: STANDARD PLATE) was “active; positive”. For the same compound, the mutagenic call (Test System: AMES SALMONELLA TYPHIMURIUM, Strain/Indicator: TA1537, Metabolic Activation: RAT, LIVER, S-9, AROCLOR 1254, Method: STANDARD PLATE) was “active; positive” and the mutagenic call (Test System: AMES SALMONELLA TYPHIMURIUM, Strain/Indicator: TA1538, Metabolic Activation: RAT, LIVER, S-9, AROCLOR 1254, Method: STANDARD PLATE) was “inactive; negative”.
`CC(C)c1ccccc1OP(=O)(Oc1ccccc1)Oc1ccccc1` was tested, and the mutagenic call (Test System: AMES SALMONELLA TYPHIMURIUM, Strain/Indicator: TA97, Metabolic Activation: HAMSTER, LIVER, S-9, AROCLOR 1254 (10 OR 30%), Method: PREINCUBATION) was “inactive; negative”, the mutagenic call [1] was “inactive; negative” and the mutagenic call (Test System: AMES SALMONELLA TYPHIMURIUM, Strain/Indicator: TA97, Metabolic Activation: RAT, LIVER, S-9, AROCLOR 1254 (10 OR 30%), Method: PREINCUBATION) was “inactive; negative”. The mutagenic call (Test System: AMES SALMONELLA TYPHIMURIUM, Strain/Indicator: TA98, Metabolic Activation: HAMSTER, LIVER, S-9, AROCLOR 1254 (10 OR 30%), Method: PREINCUBATION) was “inactive; negative”, the mutagenic call [2] was “inactive; negative” and the mutagenic call (Test System: AMES SALMONELLA TYPHIMURIUM, Strain/Indicator: TA98, Metabolic Activation: RAT, LIVER, S-9, AROCLOR 1254 (10 OR 30%), Method: PREINCUBATION) was “inactive; negative”. The mutagenic call (Test System: AMES SALMONELLA TYPHIMURIUM, Strain/Indicator: TA100, Metabolic Activation: HAMSTER, LIVER, S-9, AROCLOR 1254 (10 OR 30%), Method: PREINCUBATION) was “inactive; negative”, the mutagenic call [7] was “inactive; negative” and the mutagenic call (Test System: AMES SALMONELLA TYPHIMURIUM, Strain/Indicator: TA100, Metabolic Activation: RAT, LIVER, S-9, AROCLOR 1254 (10 OR 30%), Method: PREINCUBATION) was “inactive; negative”. The mutagenic call (Test System: AMES SALMONELLA TYPHIMURIUM, Strain/Indicator: TA1535, Metabolic Activation: HAMSTER, LIVER, S-9, AROCLOR 1254 (10 OR 30%), Method: PREINCUBATION) was “inactive; negative”, the mutagenic call [3] was “inactive; negative” and the mutagenic call (Test System: AMES SALMONELLA TYPHIMURIUM, Strain/Indicator: TA1535, Metabolic Activation: RAT, LIVER, S-9, AROCLOR 1254 (10 OR 30%), Method: PREINCUBATION) was “inactive; negative”.
With `CC(Cl)CCCC(Cl)CCCC(Cl)CCCC(Cl)CCCC(Cl)CCCC(Cl)CCCl` (centres undefined) the mutagenic call (End Point: IN VITRO CHROMOSOMAL ABERRATIONS, Test System: CHO CELLS, Metabolic Activation: NONE) was “active; positive; oily droplets formed at all doses”, the mutagenic call (End Point: IN VITRO CHROMOSOMAL ABERRATIONS, Test System: CHO CELLS, Metabolic Activation: RAT, LIVER, S-9, AROCLOR 1254) was “inactive; negative; oily droplets formed at all doses” and the mutagenic call (Test System: AMES SALMONELLA TYPHIMURIUM, Strain/Indicator: TA98, Metabolic Activation: HAMSTER, LIVER, S-9, AROCLOR 1254, Method: PREINCUBATION) was “inactive; negative”. The mutagenic call [2] was “inactive; negative”, the mutagenic call (Test System: AMES SALMONELLA TYPHIMURIUM, Strain/Indicator: TA98, Metabolic Activation: RAT, LIVER, S-9, AROCLOR 1254, Method: PREINCUBATION) was “inactive; negative” and the mutagenic call (Test System: AMES SALMONELLA TYPHIMURIUM, Strain/Indicator: TA100, Metabolic Activation: HAMSTER, LIVER, S-9, AROCLOR 1254, Method: PREINCUBATION) was “inactive; negative”. For the same compound, the mutagenic call [7] was “inactive; negative”, the mutagenic call (Test System: AMES SALMONELLA TYPHIMURIUM, Strain/Indicator: TA100, Metabolic Activation: RAT, LIVER, S-9, AROCLOR 1254, Method: PREINCUBATION) was “inactive; negative” and the mutagenic call (Test System: AMES SALMONELLA TYPHIMURIUM, Strain/Indicator: TA1535, Metabolic Activation: HAMSTER, LIVER, S-9, AROCLOR 1254, Method: PREINCUBATION) was “inactive; negative”. The mutagenic call [3] was “inactive; negative”, the mutagenic call (Test System: AMES SALMONELLA TYPHIMURIUM, Strain/Indicator: TA1535, Metabolic Activation: RAT, LIVER, S-9, AROCLOR 1254, Method: PREINCUBATION) was “inactive; negative” and the mutagenic call (Test System: AMES SALMONELLA TYPHIMURIUM, Strain/Indicator: TA1537, Metabolic Activation: HAMSTER, LIVER, S-9, AROCLOR 1254, Method: PREINCUBATION) was “inactive; negative”. The mutagenic call (Test System: AMES SALMONELLA TYPHIMURIUM, Strain/Indicator: TA1537, Metabolic Activation: NONE, Method: PREINCUBATION) was “inactive; negative” and the mutagenic call (Test System: AMES SALMONELLA TYPHIMURIUM, Strain/Indicator: TA1537, Metabolic Activation: RAT, LIVER, S-9, AROCLOR 1254, Method: PREINCUBATION) was “inactive; negative”.
For `CC(=O)Nc1cnc2ccccc2c1`, the mutagenic call [2] was “inactive; negative”, the mutagenic call (Test System: AMES SALMONELLA TYPHIMURIUM, Strain/Indicator: TA98, Metabolic Activation: RAT, LIVER, S-9, KANECHLOR 500, Method: PREINCUBATION) was “inactive; negative” and the mutagenic call [7] was “inactive; negative”. For the same compound, the mutagenic call (Test System: AMES SALMONELLA TYPHIMURIUM, Strain/Indicator: TA100, Metabolic Activation: RAT, LIVER, S-9, KANECHLOR 500, Method: PREINCUBATION) was “inactive; negative”.
In the case of `O=C(/C=C/c1ccc(-c2ccccc2)cc1)c1ccccc1`, the mutagenic call (Test System: AMES SALMONELLA TYPHIMURIUM, Strain/Indicator: TA98, Metabolic Activation: NONE, Method: STANDARD PLATE) is reported as “inactive; negative”, the mutagenic call [4] is reported as “inactive; negative” and the mutagenic call [5] is reported as “inactive; negative”. The mutagenic call [6] was “inactive; negative”.
For `COCOC`, the mutagenic call (Test System: Mouse lymphoma, Strain/Indicator: L5178Y (tk+/tk-), Metabolic Activation: None, Method: Suspension/plate) was “inactive; negative” and the mutagenic call (Test System: Mouse lymphoma, Strain/Indicator: L5178Y (tk+/tk-), Metabolic Activation: Rat, Liver, S-9, Aroclor 1254, Method: Suspension/plate) was “inactive; negative”.
